These results are taken from patent publication US20240358721A1, “GASDERMIN-D INHIBITORS AND USES THEREOF FOR TREATING PULMONARY VASO-OCCLUSION” (UNIVERSITY OF PITTSBURGH-OF THE COMMONWEALTH SYSTEM OF …, priority 2021, published 2024).

For this experiment, the system named is SCD mice. Description: qFILM assessment of pulmonary vaso-occlusion in SCD mice IV administered oxy-Hb. The format is in vivo, mouse. Conditions: LDC7559 10 mg/kg, Z-VAD-FMK 0.004 μmol/kg; for Number of PVOs per Field of View (#PVOs/FOV) / number of large PVOs (with area>1000 μm^2) per FOV: IV 10 μmole/kg oxy-Hb with inhibitor vs oxy-Hb alone; for Number of PVOs per Field of View (#PVOs/FOV) / number of large PVOs (with area>1000 μm^2) per FOV / blood flow in the lung (rapidly transiting erythrocytes) / lung vaso-occlusion in representative qFILM images: NSA 20 mg/kg; for blood flow in the lung (rapidly transiting erythrocytes) / lung vaso-occlusion in representative qFILM images / large neutrophil-platelet aggregates occluding the arteriolar bottle-necks in the lung: IV 10 μmole/kg oxy-Hb with inhibitor; for large neutrophil-platelet aggregates occluding the arteriolar bottle-necks in the lung: Necrosulfonamide 20 mg/kg. The text has this: Quantitative fluorescence intravital lung microscopy (qFILM) was used to assess the absence or presence of platelet-neutrophil aggregate mediated pulmonary vaso-occlusion. Pulmonary microcirculation (pseudo-colored purple), neutrophils (red) and platelets (pseudo-colored green) were labeled in vivo by IV administration of FITC dextran, AF546-anti-Ly6G Ab and V450-anti-CD49b Ab, respectively. […] White arrows denote the direction of blood flow within the pulmonary arterioles. Alveoli are marked with asterisks. Scale bars 20 μm. The diameter of pulmonary arteriole in B-E is ˜22 μm, 32 μm, 31.5 μm, and 31 μm, respectively. […] Refer Online Data Supplement for details. […] The data for mice with SCD IV administered 10 oxy-Hb (n=5 mice; 75 FOVs) are included as black bars in FIGS. 1N and 1O for relative comparison. qFILM FOV size ˜65 536 μm^2. Data represent mean ±SE and are compared using Student t test. *P<0.05 (FIG. 1P) Schematic showing the main findings of the study. The sterile inflammatory milieu (DAMPs, IFN-I signaling, and ROS) in SCD promotes caspase-4 (humans) or caspase-11 (mouse)-dependent cleavage of neutrophil GSDMD into the active form GSDMD-NT, leading to the shedding of NETs in the liver microcirculation. Once shed, these NETs are carried by the blood as cNETs to the lung, where they promote neutrophil-platelet aggregation in the pulmonary arterioles, leading to PVO and lung injury (acute chest syndrome).
Intravital lung microscopy (experimental scheme shown in FIG. 1A) was conducted in live mice to assess whether preventing liver-to-lung embolization of cNETs by inhibiting or deleting GSDMD-signaling leads to amelioration of pulmonary vaso-occlusion. Although large neutrophil-platelet aggregates (marked with dotted ellipses) were seen occluding the arteriolar bottle-necks, leading to impaired blood flow in the lung of SCD mice IV administered 10 μmole/kg oxy-Hb (FIG. 1B), such aggregates were rare in the lung of SCD mice IV administered 10 μmole/kg oxy-Hb with 0.004 μmol/kg pan-caspase inhibitor Z-VAD-FMK (FIG. 1C) or 10 mg/kg GSDMD-NT inhibitor LDC7559 (FIG. 1D) or 20 mg/kg GSDMD-NT inhibitor Necrosulfonamide (FIG. 1E). […] The twofold higher dose of 20 μmole/kg IV oxy-Hb also led to the development of lung vaso-occlusion in WT but not Gsdmd^−/− mice (FIG. 2). […] P-selectin deficiency led to an approximately 50% reduction in pulmonary vaso-occlusion in SCD-Selp^−/− mice administered 10 μmole/kg IV oxy-Hb (FIG. 3), however, IV administration of oxy-Hb with GSDMD-NT inhibitor (LDC7559) led to further threefold (significant) reduction in pulmonary vaso-occlusions per FOV (FIGS. 1N and 4A, and FIG. 5) and absence of large pulmonary vaso-occlusions (area>1000 μm^2) per FOV (FIG. 10) in SCD-Selp^−/− mice.
Quantitative fluorescence intravital lung microscopy (qFILM) has been used widely for in vivo assessment of pulmonary vasoocclusion in mice with SCD [Bennewitz M F et al., (2017); Vats R, Brzoska T, Bennewitz M F, et al. (2020); Vats R, Tutuncuoglu E, Pradhan-Sundd T, Tejero J, Shaw G D, Sundd P. (2020); Bennewitz M F, Tutuncuoglu E, Gudapati S, et al. (2020)] In the current study, qFILM was used to assess pulmonary vaso-occlusion and detect NETs in the intact lung microcirculation of live mice following IV challenge with saline, oxy-hemoglobin (oxy-Hb), hemin, or lipo-polysaccharide with or without pretreatment with N-terminus active domain (GSDMD-NT) inhibitors LDC7559 [Sollberger G, Choidas A, Burn G L, et al. (2018)], NSA [Rathkey J K, Zhao J, Liu Z, et al. (2018)], Disulfiram [Hu J J, Liu X, Xia S, et al. (2020)], or the pan-caspase inhibitor Z-VAD-FMK [Sollberger G, Choidas A, Burn G L, et al. (2018)], haptoglobin [Belcher J D, Chen C, Nguyen J, et al. (2014)], or TLR4-inhibitor (TAK242) [Belcher J D, Chen C, Nguyen J, et al. (2014)]. qFILM was conducted with a Nikon multiphoton excitation fluorescence microscope and an APO LWD 25×water immersion objective with 1.1 NA. […]

“Also recorded” adds a separate entry of the source. Where a SMILES comes first, the peptide text is derived from it. The star is where a group is joined. Cbz = O=C(OCc1ccccc1)*; CH2F = FC*

Turning to `COc1nccnc1NS(=O)(=O)c1ccc(NC(=O)/C=C/c2ccc([N+](=O)[O-])s2)cc1` [Necrosulfonamide, necrosulfonamide], the “Number of PVOs per Field of View (#PVOs/FOV)” value is reported as “significantly reduced”, the “number of large PVOs (with area>1000 μm^2) per FOV” value (from here on “number of large PVOs … per FOV”) was “significantly reduced”, the “blood flow in the lung (rapidly transiting erythrocytes)” value is on record as “significantly improved” and the “lung vaso-occlusion in representative qFILM images” value (shortened to “lung vaso-occlusion”) is on record as “lack of pulmonary vaso-occlusion”. Further, the “large neutrophil-platelet aggregates occluding the arteriolar bottle-necks in the lung” value is “rare”. Where the note is “listed as NSA”, the “Number of PVOs per Field of View (#PVOs/FOV)” value is given as “significantly less”, the “number of large PVOs … per FOV” value is “significantly less” and the “lung vaso-occlusion” value is given as “absence of lung vaso-occlusion”.
On to `COC(=O)C[C@H](NC(=O)[C@H](C)NC(=O)[C@@H](NC(=O)OCc1ccccc1)C(C)C)C(=O)CF` [Z-VAD-FMK] (Cbz-Val-Ala-Asp(OMe)-CH2F), for which the “Number of PVOs per Field of View (#PVOs/FOV)” value is given as “significantly less; also recorded: significantly reduced”, the “number of large PVOs … per FOV” value was “significantly less; also recorded: significantly reduced”, the “blood flow in the lung (rapidly transiting erythrocytes)” value is recorded as “significantly improved” and the “lung vaso-occlusion” value is on record as “absence of lung vaso-occlusion; also recorded: lack of pulmonary vaso-occlusion”. In addition, the “large neutrophil-platelet aggregates occluding the arteriolar bottle-necks in the lung” value is listed as “rare”.
